This is an account of results in paper PMC7497630, “Coibamide A Targets Sec61 to Prevent Biogenesis of Secretory and Membrane Proteins” (ACS Chemical Biology, 2020).

For test [1], the target named is Sec61α in U87-MG glioblastoma cells (Homo sapiens, UniProt P61619). Briefly: Cellular thermal shift assay. It counts as cell-based. Conditions: intact U87-MG cells.
A further test concerns HCT116 cells. Briefly: Cell viability, Alamar Blue assay. The format is cell-based, human. Conditions: HCT116, 72 h, 0.1% DMSO (Figure 1D), read-out: IC50. Here is the method:
Figure 1 Cytotoxicity of synthetic and Pra-containing coibamides. (A) Structure of CbA. (B) Human MDA-MB-231 breast cancer cells were treated with increasing concentrations of synthetic CbA or vehicle (0.1% DMSO) and cell viability assessed at 72 h by an MTS end-point assay. (C) Structure of Photo-CbA. (D) Human HCT116 cells were treated with increasing concentrations of synthetic or photo-CbA in 0.1% DMSO, and cell viability assessed at 72 h by Alamar Blue assay. TEXT PRINTED IN THE PICTURE: (B) CbA: MDA-MB-231 cell line: IC50(nM): 1.6 | (D) CbA: HCT 116 cell line: IC50(nM): 29.2 | (D) Photo-CbA: HCT 116 cell line: IC50(nM): 6.5
Figure 5 CbA mode of inhibition is specific compared to known Sec61 inhibitors. (A) Cell viability was measured by Alamar Blue assay (mean ± SD, n = 4, all cell lines assayed simultaneously) for HCT-116 cell lines isolated on the basis of CbA resistance in the presence of concentration series of indicated compounds. (B) Cell viability was measured by Alamar Blue assay (mean ± SD, n = 4, all cell lines assayed simultaneously) for HEK293FRT cells stably expressing Sec61α mutants in the presence of concentration series of indicated compounds. (C) Comparison of published NCI60 data for CbA,[3] AprA,[11] and IpoF.[33] The heat map was derived by plotting each GI50 value divided by the median GI50 for that compound. X indicates a cell line that was not tested. Closed arrowhead indicates cell lines with most notable differences across the three compounds. […]
A431, HEK293T, and HEK293FRT cells were cultured in DMEM supplemented with 10% FBS. […] Viability was estimated by the addition of Alamar Blue (Life Technologies) and measuring fluorescence after a further 4 h. […]

Test [2] has as its system A549 human lung adenocarcinoma cells. The following applies: 72 h.

Bridge positions count the residues as written; N and C are the ends. Square brackets hold non-standard residues; d marks the D form. Peptide text beside a SMILES is read from it. * marks the point of attachment. Phe(4-CF3-diazirinyl) = N[C@@H](Cc1ccc(C2(C(F)(F)F)N=N2)cc1)C(=O)O; NMe2Val = CC(C)[C@@H](C(=O)*)N(C)C; NMeI = CC[C@H](C)[C@H](NC)C(=O)O; NMeT = CN[C@H](C(=O)O)[C@@H](C)O; NMeL = CN[C@@H](CC(C)C)C(=O)O; NMePra = C#CC[C@H](NC)C(=O)O; dHiv = CC(C)[C@@H](O)C(=O)O; NMeS = CN[C@@H](CO)C(=O)O; Pra = C#CC[C@H](N)C(=O)O; dNMeA = CN[C@H](C)C(=O)O

Chain of Sec61α in U87-MG glioblastoma cells (P61619 whole entry): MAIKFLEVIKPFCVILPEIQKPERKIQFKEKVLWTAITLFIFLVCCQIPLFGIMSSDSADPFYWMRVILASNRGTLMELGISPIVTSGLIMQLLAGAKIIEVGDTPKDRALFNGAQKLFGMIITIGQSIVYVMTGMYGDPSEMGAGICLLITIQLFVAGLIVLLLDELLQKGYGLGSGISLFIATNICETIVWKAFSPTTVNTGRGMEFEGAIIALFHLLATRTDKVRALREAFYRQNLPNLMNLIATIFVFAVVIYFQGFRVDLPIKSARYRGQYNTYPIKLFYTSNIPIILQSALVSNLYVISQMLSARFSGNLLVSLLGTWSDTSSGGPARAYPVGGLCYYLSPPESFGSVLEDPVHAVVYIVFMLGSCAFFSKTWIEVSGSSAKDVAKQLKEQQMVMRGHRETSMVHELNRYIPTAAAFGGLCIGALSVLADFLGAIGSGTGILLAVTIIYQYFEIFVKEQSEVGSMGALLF
Chain of Sec61α in U87-MG glioblastoma cells (P60468 2-96 partner limits assumed): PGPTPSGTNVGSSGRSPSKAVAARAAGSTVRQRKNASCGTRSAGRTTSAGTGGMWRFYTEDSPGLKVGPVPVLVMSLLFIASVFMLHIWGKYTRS
Chain of Sec61α in U87-MG glioblastoma cells (P60059 whole entry partner): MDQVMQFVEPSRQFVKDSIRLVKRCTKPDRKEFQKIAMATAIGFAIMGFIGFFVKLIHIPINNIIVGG

`NCC(=O)Nc1ccc(-n2nc(C(F)(F)F)cc2-c2ccc3c(ccc4ccccc43)c2)cc1` [OSU-03012]: the “Sec61α detection at 60–66 °C (melting curve)” value in test [1] (45 to 72 °C for 3 min, 3 μM OSU-03012, 1 h) is reported as “relatively weak immunoreactivity”. The “stabilization of Sec61α, isothermal dose–response” value in test [1] (51 °C for 3 min, OSU-03012 0.03 nM to 10 μM) was “no apparent stabilization”.

For the molecule `C#CC[C@@H](C(=O)N(C)[C@@H](CC(C)C)C(=O)N(C)[C@@H]1C(=O)N(C)[C@@H](COC)C(=O)N(C)[C@@H]([C@@H](C)CC)C(=O)N[C@@H](C)C(=O)N(C)[C@@H](CC(C)C)C(=O)N[C@@H](Cc2ccc(C3(C(F)(F)F)N=N3)cc2)C(=O)N(C)[C@H](C)C(=O)O[C@@H]1C)N(C)C(=O)[C@H](OC(=O)[C@H](C(C)C)N(C)C)C(C)C` [Photo-CbA] (NMe2Val-[dHiv][NMePra][NMeL][NMeT][NMeS](Me)[NMeI]A[NMeL][Phe(4-CF3-diazirinyl)][dNMeA]; ester 4-C), the IC50 in the test with HCT116 cells stood at 6.5 nM.

In the case of `C#CC[C@@H](C(=O)N(C)[C@@H](CC(C)C)C(=O)N(C)[C@@H]1C(=O)N(C)[C@@H](COC)C(=O)N(C)[C@@H]([C@@H](C)CC)C(=O)N[C@@H](C)C(=O)N(C)[C@@H](CC(C)C)C(=O)N[C@@H](Cc2ccc(OC)cc2)C(=O)N(C)[C@H](C)C(=O)O[C@@H]1C)N(C)C(=O)[C@H](OC(=O)[C@H](C(C)C)N(C)C)C(C)C` [R3 = propargyl] (NMe2Val-[dHiv][NMePra][NMeL][NMeT][NMeS](Me)[NMeI]A[NMeL]Y(Me)[dNMeA]; ester 4-C), in test [2], the IC50 was determined as 1.7 ± 0.3 nM.

With `C#CC[C@@H](C(=O)N(C)[C@@H]1C(=O)N(C)[C@@H](COC)C(=O)N(C)[C@@H]([C@@H](C)CC)C(=O)N[C@@H](C)C(=O)N(C)[C@@H](CC(C)C)C(=O)N[C@@H](Cc2ccc(OC)cc2)C(=O)N(C)[C@H](C)C(=O)O[C@@H]1C)N(C)C(=O)[C@H](COC)N(C)C(=O)[C@H](OC(=O)[C@H](C(C)C)N(C)C)C(C)C` [R4 = propargyl] (NMe2Val-[dHiv][NMeS](Me)[NMePra][NMeT][NMeS](Me)[NMeI]A[NMeL]Y(Me)[dNMeA]; ester 4-C), in test [2], the midpoint of inhibition, the IC50, lay at 3.7 ± 0.5 nM.

With `C#CC[C@H]1C(=O)N(C)[C@@H]([C@@H](C)CC)C(=O)N[C@@H](C)C(=O)N(C)[C@@H](CC(C)C)C(=O)N[C@@H](Cc2ccc(OC)cc2)C(=O)N(C)[C@H](C)C(=O)O[C@H](C)[C@H](N(C)C(=O)[C@H](CC(C)C)N(C)C(=O)[C@H](COC)N(C)C(=O)[C@H](OC(=O)[C@H](C(C)C)N(C)C)C(C)C)C(=O)N1C` [R6 = propargyl] (NMe2Val-[dHiv][NMeS](Me)[NMeL][NMeT][NMePra][NMeI]A[NMeL]Y(Me)[dNMeA]; ester 4-C), 2 ± 0.9 nM corresponded to half-maximal inhibition in test [2] (IC50).

In test [2], `C#CC[C@H]1C(=O)N[C@@H](C)C(=O)N(C)[C@@H](CC(C)C)C(=O)N[C@@H](Cc2ccc(OC)cc2)C(=O)N(C)[C@H](C)C(=O)O[C@H](C)[C@H](N(C)C(=O)[C@H](CC(C)C)N(C)C(=O)[C@H](COC)N(C)C(=O)[C@H](OC(=O)[C@H](C(C)C)N(C)C)C(C)C)C(=O)N(C)[C@@H](COC)C(=O)N1C` [R7 = propargyl] (NMe2Val-[dHiv][NMeS](Me)[NMeL][NMeT][NMeS](Me)[NMePra]A[NMeL]Y(Me)[dNMeA]; ester 4-C) came in with an IC50 of 9.3 ± 3.4 nM.

As to `C#CC[C@@H]1NC(=O)[C@H]([C@@H](C)CC)N(C)C(=O)[C@H](COC)N(C)C(=O)[C@@H](N(C)C(=O)[C@H](CC(C)C)N(C)C(=O)[C@H](COC)N(C)C(=O)[C@H](OC(=O)[C@H](C(C)C)N(C)C)C(C)C)[C@@H](C)OC(=O)[C@@H](C)N(C)C(=O)[C@H](Cc2ccc(OC)cc2)NC(=O)[C@H](CC(C)C)N(C)C1=O` [R8 = propargyl] (NMe2Val-[dHiv][NMeS](Me)[NMeL][NMeT][NMeS](Me)[NMeI][Pra][NMeL]Y(Me)[dNMeA]; ester 4-C), the IC50 in test [2] was determined as 66 ± 15 nM.

With `C#CC[C@H]1C(=O)N[C@@H](Cc2ccc(OC)cc2)C(=O)N(C)[C@H](C)C(=O)O[C@H](C)[C@H](N(C)C(=O)[C@H](CC(C)C)N(C)C(=O)[C@H](COC)N(C)C(=O)[C@H](OC(=O)[C@H](C(C)C)N(C)C)C(C)C)C(=O)N(C)[C@@H](COC)C(=O)N(C)[C@@H]([C@@H](C)CC)C(=O)N[C@@H](C)C(=O)N1C` [R9 = propargyl] (NMe2Val-[dHiv][NMeS](Me)[NMeL][NMeT][NMeS](Me)[NMeI]A[NMePra]Y(Me)[dNMeA]; ester 4-C), the IC50 in test [2] amounted to 19 ± 7.6 nM.
